Experimental data from US20120135923A1, “Use of Melanocortins to Treat Dyslipidemia” (IPSEN PHARMA, S.A.S., priority 2009, published 2012).
Like-named read-outs stand apart in the source and are kept apart here. Bridge positions count the residues as written; N and C are the ends. Square brackets hold non-standard residues; d marks the D form. Peptide text beside a SMILES is read from it. d2Nal = N[C@H](Cc1ccc2ccccc2c1)C(=O)O; Bta = N[C@@H](Cc1csc2ccccc12)C(=O)O; Pen = CC(C)(S)[C@H](N)C(=O)O; Nle = CCCC[C@H](N)C(=O)O; GABA = NCCCC(=O)O; βAla = NCCC(=O)O

Columns and labels:
[1] = target: T1, hMC1-R (Homo sapiens, UniProt Q01726); test: cyclic AMP bioassay (ECL) in CHO-K1 cells; type: cell-based
T1 construct: expressed in transfected cells; host or cells: CHO-K1
T1 sequence (Q01726 whole entry): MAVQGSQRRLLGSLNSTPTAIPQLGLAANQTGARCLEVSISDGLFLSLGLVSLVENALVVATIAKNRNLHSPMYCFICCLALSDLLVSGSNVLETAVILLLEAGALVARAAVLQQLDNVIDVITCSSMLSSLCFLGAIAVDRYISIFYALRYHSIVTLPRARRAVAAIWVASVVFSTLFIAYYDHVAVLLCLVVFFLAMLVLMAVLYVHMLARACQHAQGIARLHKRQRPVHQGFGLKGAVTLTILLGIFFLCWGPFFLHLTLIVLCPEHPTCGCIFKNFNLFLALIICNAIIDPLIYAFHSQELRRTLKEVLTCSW
Procedure: (§3) Intracellular cyclic AMP (cAMP) levels were determined by an electrochemiluminescence (ECL) assay (Meso Scale Discovery®, Gaithersburg, Md.; referred to hereinafter as MSD). […] Transgenic CHO-K1 cells stably expressing hMC receptor subtypes 1, 3, 4 or 5 were dispensed at a density of approximately 7,000 cells/well in 384-well Multi-Array®plates (MSD) containing integrated carbon electrodes and coated with anti-cAMP antibody. Increasing concentrations of the test compounds were added and the cells were incubated for approximately 40 minutes at approximately 37° C. […] At the end of the second incubation period read buffer (Tris-buffered solution containing an ECL co-reactant and Triton X-100 at ph 7.8) was added and the cAMP levels in the cell lysates were immediately determined by ECL detection with a Sector Imager 6000 Reader® (MSD). Data were analyzed using a computer-assisted non-linear regression analysis (XL fit; IDBS) and reported as either an EC50 value or a Kb value.
(§4) The Kb value reflects the potency of an antagonist and is determined by Schild analysis. In brief, concentration-response curves of an agonist are carried out in the presence of increasing concentrations of an antagonist. […] It is calculated by extrapolating the line on a Schild plot to zero on the y-axis.

[2] = target: T1, hMC1-R; test: Radioligand binding assay, [125I]-NDP-α-MSH competition, CHO-K1 membranes
Procedure: (§1) Cellular membranes used for the in vitro receptor binding assays were obtained from transgenic CHO-K1 cells stably expressing hMC-R receptor subtypes 1, 3, 4 or 5. […] The pellets were resuspended in the same buffer and centrifuged at 50,000 g for 10 minutes at approximately 4° C. The washed pellets containing the cellular membranes were stored at approximately −80° C.
(§2) Cell membranes (1-10 μg protein/well) prepared as described above were incubated in 50 mM Tris-HCl at pH 7.4 containing 0.2% bovine serum albumin (BSA), 5 mM MgCl2, 1 mM CaCl2 and 0.1 mg/mL bacitracin, with increasing concentrations of the test compound and 0.1-0.3 nM [^25I]-NDP-α-MSH for approximately 90-120 minutes at approximately 37° C. […] Filters were washed three times with 50 mM Tris-HCl at pH 7.4 at a temperature of approximately 0-4° C. and then assayed for radioactivity using a Packard Topcount® scintillation counter. Binding data were analyzed by computer-assisted non-linear regression analysis (XL fit; IDBS).

[3] = target: T2, hMC4-R (Homo sapiens, UniProt P32245); test: cyclic AMP bioassay (ECL) in CHO-K1 cells; type: cell-based
T2 construct: expressed in transfected cells; host or cells: CHO-K1
T2 sequence (P32245 whole entry): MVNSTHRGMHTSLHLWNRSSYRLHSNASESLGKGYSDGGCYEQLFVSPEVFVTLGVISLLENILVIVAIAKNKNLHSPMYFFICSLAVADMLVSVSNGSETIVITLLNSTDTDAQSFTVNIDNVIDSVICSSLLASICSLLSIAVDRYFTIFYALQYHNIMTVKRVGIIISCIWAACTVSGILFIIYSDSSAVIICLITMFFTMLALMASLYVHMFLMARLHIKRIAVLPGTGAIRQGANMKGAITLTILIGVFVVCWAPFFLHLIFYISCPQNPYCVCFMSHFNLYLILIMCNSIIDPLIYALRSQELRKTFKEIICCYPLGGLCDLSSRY

[4] = target: T3, hMC5-R (Homo sapiens, UniProt P33032); test: cyclic AMP bioassay (ECL) in CHO-K1 cells; type: cell-based
T3 construct: expressed in transfected cells; host or cells: CHO-K1
T3 sequence (P33032 whole entry): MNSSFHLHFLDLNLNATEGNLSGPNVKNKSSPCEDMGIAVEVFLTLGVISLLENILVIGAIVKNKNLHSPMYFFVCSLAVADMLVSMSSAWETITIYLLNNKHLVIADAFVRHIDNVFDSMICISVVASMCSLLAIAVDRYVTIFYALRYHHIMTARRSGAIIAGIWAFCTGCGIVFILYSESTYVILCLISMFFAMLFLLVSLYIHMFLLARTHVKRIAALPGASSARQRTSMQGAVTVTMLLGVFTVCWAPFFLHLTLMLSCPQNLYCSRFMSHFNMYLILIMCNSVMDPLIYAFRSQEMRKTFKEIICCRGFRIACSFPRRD
Procedure: as §3, §4

[5] = target: T4, hMC3-R (Homo sapiens, UniProt P41968); test: cyclic AMP bioassay (ECL) in CHO-K1 cells; type: cell-based
T4 construct: expressed in transfected cells; host or cells: CHO-K1
T4 sequence (P41968 whole entry): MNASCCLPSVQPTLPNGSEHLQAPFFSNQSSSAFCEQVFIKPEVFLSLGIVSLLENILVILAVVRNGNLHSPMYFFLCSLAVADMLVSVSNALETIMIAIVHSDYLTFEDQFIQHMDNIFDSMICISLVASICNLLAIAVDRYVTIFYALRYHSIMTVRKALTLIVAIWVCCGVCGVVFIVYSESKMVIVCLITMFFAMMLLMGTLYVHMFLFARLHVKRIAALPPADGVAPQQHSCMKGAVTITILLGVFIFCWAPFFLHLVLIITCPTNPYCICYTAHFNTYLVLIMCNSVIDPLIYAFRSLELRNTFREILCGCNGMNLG

[6] = target: T4, hMC3-R; test: Radioligand binding assay, [125I]-NDP-α-MSH competition, CHO-K1 membranes
Procedure: as §1, §2

[7] = target: T3, hMC5-R; test: as above
Procedure: as §1, §2

[8] = Table 9A/9B, read-out: EC50 hMC1-R
[9] = Table 9A/9B, read-out: EC50 hMC4-R
[10] = Table 9A/9B, read-out: EC50 hMC5-R
[11] = Table 9A/9B, read-out: EC50 hMC3-R

EC50 [1, 8] [nM]	Ki ([2]; Table 5, read-out: Ki hMC1-R) [nM]	EC50 [3, 9] [nM]	EC50 [4, 10] [nM]	EC50 [5, 11] [nM]	Compound	other results
0.37	0.05	0.021	1.7	0.1	CCCC[C@H](N)C(=O)N[C@H]1CSSC[C@@H](C(N)=O)NC(=O)CCCNC(=O)[C@H](Cc2c[nH]c3ccccc23)NC(=O)[C@H](CCCNC(=N)N)NC(=O)[C@@H](Cc2ccccc2)NC(=O)[C@H](Cc2c[nH]cn2)NC1=O [Nle-c(Cys-His-D-Phe-Arg-Trp-Gaba-Cys)-NH2] (H-[Nle]CH[dF]RW[GABA]C-NH2; disulfide 2-8)	
					CC(=O)N[C@H]1CSSC[C@@H](C(=O)N2CCC[C@H]2C(=O)N2CCC[C@H]2C(=O)N[C@@H](CCCCN)C(=O)N[C@@H](CC(=O)O)C(=O)NCCC(=O)N[C@@H](CCCNC(=N)N)C(=O)N[C@@H](CCCNC(=N)N)C(=O)N[C@@H](CCCNC(=N)N)C(=O)N[C@@H](CCCNC(=N)N)C(=O)N[C@@H](CCCNC(=N)N)C(=O)N[C@@H](CCCNC(=N)N)C(=O)N[C@@H](CCC(N)=O)C(=O)N[C@@H](CCCNC(=N)N)C(=O)N[C@@H](CCCNC(=N)N)C(=O)N[C@@H](CCCNC(=N)N)C(N)=O)NC(=O)[C@H](C)NC(=O)[C@H](Cc2csc3ccccc23)NC(=O)[C@H](CCCNC(=N)N)NC(=O)[C@@H](Cc2ccc3ccccc3c2)NC(=O)[C@H](Cc2c[nH]cn2)NC(=O)[C@H](CCC(=O)O)NC1=O	EC50 [1]: 68.6 nM; Ki ([6]; Ki hMC3-R, Table 6): 14.3 nM; Kb [3]: 33.2 nM; EC50 [4]: > 10000 nM; Kb [5]: 153 nM
					CC(=O)N[C@@H](CC(C)C)C(=O)N[C@H]1CSSC[C@@H](C(N)=O)NC(=O)CCCNC(=O)[C@H](Cc2c[nH]c3ccccc23)NC(=O)[C@H](CCCNC(=N)N)NC(=O)[C@@H](Cc2ccccc2)NC(=O)[C@H](Cc2c[nH]cn2)NC1=O [Ac-Leu-c(Cys-His-D-Phe-Arg-Trp-Gaba-Cys)-NH2] (Ac-LCH[dF]RW[GABA]C-NH2; disulfide 2-8 (inferred))	Ki ([6]; Table 5, read-out: Ki hMC3-R): 17.4 nM
					CCCC[C@@H]1NC(=O)N(CC(=O)N[C@H]2CSSC[C@@H](C(N)=O)NC(=O)[C@H](Cc3c[nH]c4ccccc34)NC(=O)[C@H](CCCNC(=N)N)NC(=O)[C@@H](Cc3ccccc3)NC(=O)[C@H](Cc3cnc[nH]3)NC(=O)[C@H](CCC(=O)O)NC2=O)C1=O [Hydantoin(C(O)-(Nle-Gly))-c(Cys-Glu-His-D-Phe-Arg-Trp-Cys)-NH2]	EC50 ([1]; Table 11, read-out: EC50 hMC1): 54.3 nM; Ki ([2]; Table 7, read-out: Ki hMC1): 14.3 nM; EC50 ([3]; Table 11, read-out: EC50 hMC4): 0.177 nM; EC50 ([5]; Table 11, read-out: EC50 hMC3): 12.2 nM
	12				CCCC[C@H](NC(C)=O)C(=O)N[C@H]1CSSC[C@@H](C(N)=O)NC(=O)[C@H](Cc2c[nH]c3ccccc23)NC(=O)[C@H](CCCNC(=N)N)NC(=O)[C@@H](Cc2ccccc2)NC(=O)[C@H](Cc2c[nH]cn2)NC(=O)[C@@H](C(C)(C)C)NC1=O [Ac-Nle-c(Cys-D-Tle-His-D-Phe-Arg-Trp-Cys)-NH2]	Ki ([7]; Table 5, read-out: Ki hMC5-R): 40 nM
0.819		0.453	45.3	0.541	CCCC[C@H](NC(C)=O)C(=O)N[C@H]1CSSC[C@@H](C(N)=O)NC(=O)[C@H](Cc2c[nH]c3ccccc23)NC(=O)[C@H](CCCNC(=N)N)NC(=O)[C@@H](Cc2ccccc2)NC(=O)[C@H](Cc2c[nH]cn2)NC(=O)[C@@H](CC2CCCCC2)NC1=O [Ac-Nle-c(Cys-D-Cha-His-D-Phe-Arg-Trp-Cys)-NH2]	Ki ([6]; Table 5, read-out: Ki hMC3-R): 2.08 nM
	0.323				CCCC[C@H](NC(C)=O)C(=O)N[C@H]1CSSC[C@@H](C(N)=O)NC(=O)CCNC(=O)[C@@H](Cc2c[nH]c3ccccc23)NC(=O)[C@H](CCCNC(=N)N)NC(=O)[C@@H](Cc2ccccc2)NC(=O)[C@H](Cc2c[nH]cn2)NC1=O [Ac-Nle-c(Cys-His-D-Phe-Arg-D-Trp-β-Ala-Cys)-NH2]	
	0.648				CCCC[C@H](NC(C)=O)C(=O)N[C@H]1CC(=O)NCCCC[C@@H](C(N)=O)NC(=O)CCNC(=O)[C@H](Cc2c[nH]c3ccccc23)NC(=O)[C@H](CCCNC(=N)N)NC(=O)[C@@H](Cc2ccc3ccccc3c2)NC(=O)[C@H](Cc2c[nH]cn2)NC1=O [Ac-Nle-c(Asp-His-D-2-Nal-Arg-Trp-β-Ala-Lys)-NH2]	EC50 ([1]; Table 9C/9D, read-out: EC50 hMC1-R): 0.913 nM
4.23	1.81	0.719	23.2	8.09	CC(=O)N[C@@H](CCCNC(=N)N)C(=O)N[C@H]1CSSC(C)(C)[C@@H](C(N)=O)NC(=O)CCCNC(=O)[C@H](Cc2c[nH]c3ccccc23)NC(=O)[C@H](CCCNC(=N)N)NC(=O)[C@@H](Cc2ccccc2)NC(=O)[C@H](Cc2c[nH]cn2)NC1=O [Ac-Arg-c(Cys-His-D-Phe-Arg-Trp-Gaba-Pen)-NH2] (Ac-RCH[dF]RW[GABA][Pen]-NH2; disulfide 2-8 (inferred))	
					CC(=O)N[C@H]1CSSC[C@@H](C(=O)N2CCC[C@H]2C(=O)N2CCC[C@H]2C(=O)N[C@@H](CCCCN)C(=O)N[C@@H](CC(=O)O)C(=O)NCCC(=O)NCC(=O)N[C@@H](CCCNC(=N)N)C(=O)N[C@@H](CCCCN)C(=O)N[C@@H](CCCNC(=N)N)C(=O)N[C@@H](CCCNC(=N)N)C(=O)N[C@@H](CCCNC(=N)N)C(=O)N[C@@H](CCC(N)=O)C(=O)N[C@@H](CCCNC(=N)N)C(=O)N[C@@H](CCCNC(=N)N)C(=O)N[C@@H](CCCNC(=N)N)C(N)=O)NC(=O)[C@H](C)NC(=O)[C@H](Cc2csc3ccccc23)NC(=O)[C@H](CCCNC(=N)N)NC(=O)[C@@H](Cc2ccc3ccccc3c2)NC(=O)[C@H](Cc2c[nH]cn2)NC(=O)[C@H](CCC(=O)O)NC1=O	EC50 [1]: 32.2 nM; Ki ([7]; Ki hMC5-R, Table 6): 15.5 nM; Kb [3]: 5.23 nM; EC50 [4]: 194 nM; Kb [5]: 98.3 nM
					N=C(N)NCCC[C@@H]1NC(=O)[C@@H](Cc2ccccc2)NC(=O)[C@H](Cc2c[nH]cn2)NC(=O)[C@@H](NC(=O)[C@@H](N)Cc2ccccc2)CSSC[C@@H](C(N)=O)NC(=O)CCCNC(=O)[C@H](Cc2c[nH]c3ccccc23)NC1=O [Phe-c(Cys-His-D-Phe-Arg-Trp-Gaba-Cys)-NH2] (H-FCH[dF]RW[GABA]C-NH2; disulfide 2-8)	Ki ([6]; Table 5, read-out: Ki hMC3-R): 15.2 nM
	0.256				CC(=O)N[C@H](C(=O)N[C@H]1CSSC[C@@H](C(N)=O)NC(=O)CCCNC(=O)[C@H](Cc2c[nH]c3ccccc23)NC(=O)[C@H](CCCNC(=N)N)NC(=O)[C@@H](Cc2ccccc2)NC(=O)[C@H](Cc2c[nH]cn2)NC1=O)C(C)C [Ac-Val-c(Cys-His-D-Phe-Arg-Trp-Gaba-Cys)-NH2] (Ac-VCH[dF]RW[GABA]C-NH2; disulfide 2-8 (inferred))	
8.43	3.93	0.959	2140	32.4	CC(=O)N[C@H](CCCNC(=N)N)C(=O)N[C@H]1CSSC(C)(C)[C@@H](C(N)=O)NC(=O)CCCNC(=O)[C@H](Cc2c[nH]c3ccccc23)NC(=O)[C@H](CCCNC(=N)N)NC(=O)[C@@H](Cc2ccccc2)NC(=O)[C@H](Cc2c[nH]cn2)NC1=O [Ac-D-Arg-c(Cys-His-D-Phe-Arg-Trp-Gaba-Pen)-NH2] (Ac-[dR]CH[dF]RW[GABA][Pen]-NH2; disulfide 2-8 (inferred))	
1.48	0.79	0.078	297	5.76	CC(=O)N[C@H](CCCNC(=N)N)C(=O)N[C@H]1CC(=O)NCCCC[C@@H](C(N)=O)NC(=O)[C@H](C)NC(=O)[C@H](Cc2c[nH]c3ccccc23)NC(=O)[C@H](CCCNC(=N)N)NC(=O)[C@@H](Cc2ccccc2)NC(=O)[C@H](Cc2c[nH]cn2)NC1=O [Ac-D-Arg-c(Asp-His-D-Phe-Arg-Trp-Ala-Lys)-NH2]	
					CC(=O)N[C@H]1CSSC[C@@H](C(=O)N2CCC[C@H]2C(=O)N2CCC[C@H]2C(=O)N[C@@H](CCCCN)C(=O)N[C@@H](CC(=O)O)C(=O)NCCC(=O)NCC(=O)N[C@@H](CCCNC(=N)N)C(=O)N[C@@H](CCCNC(=N)N)C(=O)N[C@@H](CCCNC(=N)N)C(=O)N[C@@H](CCCNC(=N)N)C(=O)N[C@@H](CCCNC(=N)N)C(=O)N[C@@H](CCC(N)=O)C(=O)N[C@@H](CCCNC(=N)N)C(=O)N[C@@H](CCCNC(=N)N)C(=O)N[C@@H](CCCNC(=N)N)C(N)=O)NC(=O)[C@H](C)NC(=O)[C@H](Cc2csc3ccccc23)NC(=O)[C@H](CCCNC(=N)N)NC(=O)[C@@H](Cc2ccc3ccccc3c2)NC(=O)[C@H](Cc2c[nH]cn2)NC(=O)[C@H](CCC(=O)O)NC1=O (Ac-CEH[d2Nal]R[Bta]ACPPKD[βAla]GRRRRRQRRR-NH2; disulfide 1-8)	EC50 ([1]; cAMP, CHO-K1 cells expressing hMC1-R, read-out: EC50 hMC1-R): 146 nM; Ki ([7]; Table 6, read-out: Ki hMC5-R): 165 nM; Kb ([3]; antagonist potency by Schild analysis, cAMP, CHO-K1 cells expressing hMC4-R, read-out: Kb hMC4-R): 32 nM; EC50 ([4]; cAMP, CHO-K1 cells expressing hMC5-R, read-out: EC50 hMC5-R): 1400 nM; Kb ([5]; antagonist potency by Schild analysis, cAMP, CHO-K1 cells expressing hMC3-R, read-out: Kb hMC3-R): 104 nM
